Measured values reported in US20220073536A1 (Rigel Pharmaceuticals, Inc., priority 2003, published 2022).
Counter-ions that a name gives are not always drawn. Like-named read-outs stand apart in the source and are kept apart here. Each block holds one compound with its values, some of them ahead of it.

Tested on: cultured human mast cells (CHMC)
Experiment: CHMC low cell density IgE activation: tryptase assay
Type: cell-based
Details: low cell density CHMC, IgE activation
Procedure, shortened: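 Tryptase release was read from supernatant with a fluorogenic substrate (30 min, room temperature) after anti-IgE challenge of cultured human mast cells (1000–1500 cells/well, low density) for 30 minutes at 37° C.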

[1] = tryptase readout, 8 pt, read-out: LD Tryptase, CHMC, IgE, 8 pt
[2] = tryptase readout, 3 pt, read-out: LD Tryptase, CHMC, IgE, 3 pt
[3] = Homo sapiens, Mast cell, tryptase, 3 pt, read-out: LD Tryptase, CHMC, IgE, 3 pt
[4] = tryptase, 8 pt, read-out: LD Tryptase, CHMC, IgE, 8 pt
[5] = tryptase, 3 pt, read-out: LD Tryptase, CHMC, IgE, 3 pt
[6] = Homo sapiens, Mast cell, tryptase, 8 pt, read-out: LD Tryptase, CHMC, IgE, 8 pt

IC50 [1]: < 10 µM
SMILES: CC(=O)N1CCN(c2cccc(Nc3ncc(F)c(Nc4ccc5c(n4)NC(=O)C(C)(C)O5)n3)c2)CC1 [Compound 1076, N2-[3-(4-Acetylpiperazino)phenyl]-N4-(2,2-dimethyl-3-oxo-4H-5-pyrid[1,4]oxazin-6-yl)-5-fluoro-2,4-pyrimidinediamine]

IC50 [1]: < 10 µM
SMILES: CCOC(=O)N1CCN(c2ccc(Nc3ncc(F)c(Nc4ccc5c(n4)NC(=O)C(C)(C)O5)n3)cc2)CC1 [Compound 1077, N4-(2,2-Dimethyl-3-oxo-4H-5-pyrid [1,4]oxazin-6-yl)-N2-[4-(4-ethoxycarbonylpiperazino)phenyl]-5-fluoro-2,4-pyrimidinediamine]

IC50 [1]: < 10 µM
SMILES: CC1(C)Oc2ccc(Nc3nc(Nc4cccc(N5CCOCC5)c4)ncc3F)nc2NC1=O [Compound 1078, N4-(2,2-Dimethyl-3-oxo-4H-5-pyrid[1,4]oxazin-6-yl)-5-fluoro-N2-(3-morpholinophenyl)-2,4-pyrimidinediamine]

IC50 [1]: < 10 µM
SMILES: CNC(=O)COc1cccc(Nc2ncc(F)c(Nc3ccc4c(n3)NC(=O)C(C)(C)O4)n2)c1C [Compound 1079, N4-(2,2-Dimethyl-3-oxo-4H-5-pyrid [1,4]oxazin-6-yl)-5-fluoro-N2-[2-methyl-3-(N-methylamino)carbonylmethyleneoxyphenyl]-2,4-pyrimidinediamine]

IC50 [1]: < 10 µM
SMILES: CN1CCN(c2cccc(Nc3ncc(F)c(Nc4ccc5c(n4)NC(=O)C(C)(C)O5)n3)c2)CC1 [Compound 1080, N4-(2,2-Dimethyl-3-oxo-4H-5-pyrid [1,4]oxazin-6-yl)-5-fluoro-N2-[3-(4-methylpiperazino)phenyl]-2,4-pyrimidinediamine]

IC50 [2]: < 10 µM
IC50 [1]: < 10 µM
SMILES: COc1ccc(Nc2ncc(F)c(Nc3ccc4c(n3)NC(=O)[C@H](C)O4)n2)cc1Cl [Compound 1081, (S)-N2-(3-Chloro-4-methoxyphenyl)-5-fluoro-N4-(2-methyl-3-oxo-2H,4H-5-pyrid[1,4]oxazin-6-yl)-2,4-pyrimidinediamine]

IC50 [2]: < 10 µM
IC50 [1]: < 10 µM
SMILES: COc1cc(Nc2ncc(F)c(Nc3ccc4c(n3)NC(=O)[C@H](C)O4)n2)cc(OC)c1OC [Compound 1082, (S)-5-Fluoro-N4-(2-methyl-3-oxo-2H,4H-5-pyrid[1,4]oxazin-6-yl)-N2-(3,4,5-trimethoxyphenyl)-2,4-pyrimidinediamine]

IC50 (Homo sapiens, Mast cell, tryptase readout, 3 pt, read-out: LD Tryptase, CHMC, IgE, 3 pt): < 10 µM
IC50 (Homo sapiens, Mast cell, tryptase readout, 8 pt, read-out: LD Tryptase, CHMC, IgE, 8 pt): < 10 µM
SMILES: O=C1COc2ccc(Nc3ncc(F)c(Nc4ccc5c(c4)NC(=O)CO5)n3)cc2N1 [Compound 1083, N2,N4-Bis (3-oxo-2H,4H-benz[1,4]oxazin-6-yl)-5-fluoro-2,4-pyrimidinediamine]

IC50 [2]: > 10 µM
IC50 [1]: < 10 µM
SMILES: Cc1cc(C)cc(Nc2ncc(F)c(Nc3ccc4c(n3)NC(=O)[C@H](C)O4)n2)c1 [Compound 1084, (S)-N2-(3,5-Dimethylphenyl)-5-fluoro-N4-(2-methyl-3-oxo-2H,4H-5-pyrid[1,4]oxazin-6-yl)-2,4-pyrimidinediamine]

IC50 [3]: > 10 µM
SMILES: CCOC(=O)N1CCN(c2cccc(Nc3ncc(F)c(NC4CN(C(=O)OC(C)(C)C)C4)n3)c2)CC1 [Compound 1129]

IC50 [3]: > 10 µM
SMILES: CCOC(=O)N1CCN(c2cccc(Nc3ncc(F)c(NC4CNC4)n3)c2)CC1 [Compound 1130]

IC50 [3]: > 10 µM
SMILES: CN1CCN(c2ccc(Nc3ncc(F)c(NC4CNC4)n3)cc2)CC1 [Compound 1131]

IC50 [4]: < 10 µM
SMILES: Fc1cnc(Nc2cccc(-c3cnco3)c2)nc1Nc1ccc2c(n1)NCCO2 [Compound 1132, N4-(3,4-Dihydro-2H,4H-5-pyrid[1,4]oxazin-6-yl)-5-fluoro-N2-[3-(oxazol-5-yl)phenyl]-2,4-pyrimidinediamine]

IC50 [3]: > 10 µM
SMILES: CN(c1nc(Cl)ncc1F)C1CCC1 [Compound 1133, 2-Chloro-N4-cyclobutyl-5-fluoro-N4-methyl-4-pyrimidineamine]

IC50 [5]: < 10 µM
IC50 [4]: < 10 µM
SMILES: CC(=O)N1CCN(c2ccc(Nc3ncc(F)c(Nc4ccc5c(n4)NCCO5)n3)cc2)CC1 [Compound 1134, N2-[4-(4-Acetylpiperazino)phenyl]-N4-(3,4-dihydro-2H,4H-5-pyrid[1,4]oxazin-6-yl)-5-fluoro-2,4-pyrimidinediamine]

IC50 [5]: < 10 µM
IC50 [4]: < 10 µM
SMILES: CCOC(=O)N1CCN(c2ccc(Nc3ncc(F)c(Nc4ccc5c(n4)NCCO5)n3)cc2)CC1 [Compound 1135, N4-(3,4-Dihydro-2H,4H-5-pyrid[1,4]oxazin-6-yl)-N2-[4-(4-ethoxycarbonylpiperazino)phenyl]-5-fluoro-2,4-pyrimidinediamine]

IC50 [5]: < 10 µM
IC50 [4]: < 10 µM
SMILES: Fc1cnc(Nc2cccc(N3CCOCC3)c2)nc1Nc1ccc2c(n1)NCCO2 [Compound 1136, N4-(3,4-Dihydro-2H,4H-5-pyrid[1,4]oxazin-6-yl)-5-fluoro-N2-(3-morpholinophenyl)-2,4-pyrimidinediamine]

IC50 [5]: < 10 µM
IC50 [4]: < 10 µM
SMILES: CC(=O)N1CCN(c2cccc(Nc3ncc(F)c(Nc4ccc5c(n4)NCCO5)n3)c2)CC1 [Compound 1137, N2-[3-(4-Acetylpiperazino)phenyl]-N4-(3,4-dihydro-2H,4H-5-pyrid[1,4]oxazin-6-yl)-5-fluoro-2,4-pyrimidinediamine]

IC50 [5]: < 10 µM
IC50 [4]: < 10 µM
SMILES: CCOC(=O)N1CCN(c2cccc(Nc3ncc(F)c(Nc4ccc5c(n4)NCCO5)n3)c2)CC1 [Compound 1138, N4-(3,4-Dihydro-2H,4H-5-pyrid[1,4]oxazin-6-yl)-N2-[3-(4-ethoxycarbonylpiperazino)phenyl]-5-fluoro-2,4-pyrimidinediamine]

IC50 [3]: < 10 µM
SMILES: CN1CCN(c2ccc(Nc3ncc(F)c(NC4CCC4)n3)cc2Cl)CC1 [Compound 1188, N4-Cyclobutyl-5-fluoro-N2-[3-chloro-4-(4-methylpiperazino)phenyl]-2,4-pyrimidinediamine]

SMILES: CC(=O)N1CCN(c2ccc(Nc3ncc(F)c(NC4CCC4)n3)cc2)CC1 [Compound 1192, N2-[4-(4-Acetylpiperazino)phenyl]-N4-cyclobutyl-5-fluoro-2,4-pyrimidinediamine Bis Hydrogen Chloride Salt]
IC50 [5]: < 10 µM

IC50 [3]: < 10 µM
SMILES: CN1CCN(c2ccc(Nc3ncc(F)c(NC4CCCC4)n3)cc2Cl)CC1 [Compound 1195, N2-[3-Chloro-4-(4-methylpiperazino)phenyl]-N4-cyclopentyl-5-fluoro-2,4-pyrimidinediamine]

IC50 [3]: < 10 µM
SMILES: CN1CCN(c2ccc(Nc3ncc(F)c(Nc4cc(C5CC5)n[nH]4)n3)cc2Cl)CC1 [Compound 1196, N2-[3-Chloro-4-(4-methylpiperazino)phenyl]-N4-(3-cyclopropyl-1H-pyrazol-5-yl)-5-fluoro-2,4-pyrimidinediamine]

IC50 [5]: < 10 µM
IC50 [4]: < 10 µM
SMILES: CN1CCN(c2ccc(Nc3ncc(F)c(Nc4ccc5c(n4)NCCO5)n3)cc2Cl)CC1 [Compound 1197, N2-[3-Chloro-4-(4-methylpiperazino)phenyl]-N4-(3,4-dihydro-2H,4H-5-pyrid[1,4]oxazin-6-yl)-5-fluoro-2,4-pyrimidinediamine]

SMILES: CN1CCN(c2ccc(Nc3ncc(F)c(NC4CCCCC4)n3)cc2Cl)CC1 [Compound 1199, N2-[3-Chloro-4-(4-methylpiperazino)phenyl]-N4-cyclohexyl-5-fluoro-2,4-pyrimidinediamine Bis Hydrogen Chloride Salt]
IC50 [4]: < 10 µM

IC50 [3]: < 10 µM
SMILES: Cc1cc(Nc2ncc(F)c(NC3CCCC3)n2)ccc1N1CCN(C)CC1 [Compound 1200]

IC50 [3]: < 10 µM
IC50 [6]: < 10 µM
SMILES: Cc1cc(Nc2ncc(F)c(NC3CCCCC3)n2)ccc1N1CCN(C)CC1 [Compound 1201]

IC50 [3]: < 10 µM
IC50 [6]: < 10 µM
SMILES: Cc1cc(Nc2ncc(F)c(Nc3cc(C4CC4)n[nH]3)n2)ccc1N1CCN(C)CC1 [Compound 1202]

IC50 [5]: < 10 µM
IC50 [4]: < 10 µM
SMILES: Cc1cc(Nc2ncc(F)c(Nc3ccc4c(n3)NCCO4)n2)ccc1N1CCN(C)CC1 [Compound 1203, N4-(3,4-Dihydro-2H,4H-5-pyrid[1,4]oxazin-6-yl)-5-fluoro-N2-[3-methyl-4-(4-methylpiperazino)phenyl]-2,4-pyrimidinediamine]

IC50 [3]: < 10 µM
SMILES: CC(C)Nc1nc(Nc2ccc(N3CCN(C)CC3)cc2)ncc1F [Compound 1204]

IC50 [3]: < 10 µM
SMILES: CC(C)Nc1nc(Nc2ccc(N3CCN(C)CC3)c(Cl)c2)ncc1F [Compound 1205]

IC50 [3]: < 10 µM
IC50 [6]: > 10 µM
SMILES: Cc1cc(Nc2ncc(F)c(NC(C)C)n2)ccc1N1CCN(C)CC1 [Compound 1206]

IC50 [3]: < 10 µM
SMILES: CN1CCN(c2ccc(Nc3ncc(F)c(NC4CCC4)n3)cc2C(F)(F)F)CC1 [Compound 1207]

IC50 [3]: < 10 µM
SMILES: CN1CCN(c2ccc(Nc3ncc(F)c(NC4CCCC4)n3)cc2C(F)(F)F)CC1 [Compound 1208]

IC50 [3]: < 10 µM
SMILES: CN1CCN(c2ccc(Nc3ncc(F)c(NC4CCCCC4)n3)cc2C(F)(F)F)CC1 [Compound 1209]

IC50 [3]: < 10 µM
SMILES: CC(C)Nc1nc(Nc2ccc(N3CCN(C)CC3)c(C(F)(F)F)c2)ncc1F [Compound 1210]

IC50 [5]: < 10 µM
SMILES: CN1CCN(c2ccc(Nc3ncc(F)c(Nc4cc(C5CC5)n[nH]4)n3)cc2C(F)(F)F)CC1 [Compound 1211]

IC50 [3]: > 10 µM
SMILES: CN1C(C)(C)CC(Nc2nc(Cl)ncc2F)CC1(C)C [Compound 1212]

IC50 [3]: > 10 µM
SMILES: CCOC(=O)N1CCC(Nc2nc(Cl)ncc2F)CC1 [Compound 1213]

IC50 [3]: > 10 µM
SMILES: CC(C)Nc1nc(Nc2cccc(N3CCN(C)CC3)c2)ncc1F [Compound 1214]

IC50 [3]: > 10 µM
SMILES: CN1CCN(c2ccc(Nc3ncc(F)c(NC(C)(C)C)n3)cc2)CC1 [Compound 1215]

IC50 [3]: > 10 µM
SMILES: CN1CCN(c2cccc(Nc3ncc(F)c(NC(C)(C)C)n3)c2)CC1 [Compound 1216]
